Results on 4 compounds are retold here after ChEMBL document CHEMBL3585300, “Inhibition of Cathepsin K: A Novel and Promising Treatment for Osteoporosis” (ACS Med Chem Lett, 2015).

Assay [1] deals with T1, Cathepsin K (Homo sapiens) (UniProt P43235).
T1 sequence (whole entry): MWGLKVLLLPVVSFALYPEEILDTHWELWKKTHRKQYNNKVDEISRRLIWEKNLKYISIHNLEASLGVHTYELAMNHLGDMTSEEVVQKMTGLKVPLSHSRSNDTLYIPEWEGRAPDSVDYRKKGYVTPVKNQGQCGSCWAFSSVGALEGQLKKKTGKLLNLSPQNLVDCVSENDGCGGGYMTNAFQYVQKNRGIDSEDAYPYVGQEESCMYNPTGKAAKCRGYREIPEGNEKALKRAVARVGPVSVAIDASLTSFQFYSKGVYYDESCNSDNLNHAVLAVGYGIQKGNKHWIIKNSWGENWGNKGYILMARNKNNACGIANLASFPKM
As to the kind of experiment: Inhibition of human cathepsin K incubated for 15 mins using Z-Leu-Arg-AMC substrate by spectrofluorometry.

Assay [2] addresses T2, Cathepsin F (Homo sapiens) (UniProt Q9UBX1).
T2 sequence (whole entry): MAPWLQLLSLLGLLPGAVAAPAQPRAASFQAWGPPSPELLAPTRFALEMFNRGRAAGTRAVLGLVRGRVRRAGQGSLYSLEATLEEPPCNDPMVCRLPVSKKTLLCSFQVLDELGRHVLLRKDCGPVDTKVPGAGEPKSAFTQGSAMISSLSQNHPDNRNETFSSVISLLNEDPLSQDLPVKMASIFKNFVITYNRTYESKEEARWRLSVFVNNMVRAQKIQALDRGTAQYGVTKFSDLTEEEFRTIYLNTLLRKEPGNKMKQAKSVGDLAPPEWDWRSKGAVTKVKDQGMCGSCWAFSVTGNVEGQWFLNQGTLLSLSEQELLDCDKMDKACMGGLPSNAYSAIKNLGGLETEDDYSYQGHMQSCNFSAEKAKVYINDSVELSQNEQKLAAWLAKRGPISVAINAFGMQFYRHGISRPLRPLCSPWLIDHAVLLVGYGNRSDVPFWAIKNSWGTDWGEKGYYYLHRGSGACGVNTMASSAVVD
Briefly: Inhibition of human cathepsin F incubated for 15 mins using Z-Phe-Arg-AMC substrate by spectrofluorometry.

On to `N#CC1(NC(=O)[C@@H]2CCCC[C@H]2c2nc(C3CC(F)(F)C3)sc2-c2ccc(N3CCS(=O)(=O)CC3)cc2)CC1`, for which the IP worked out at 5.8 nM in assay [1] and 1000 nM in assay [2].

As for `CC(C)(C)c1nc([C@@H]2CCCC[C@H]2C(=O)NCC#N)c(-c2ccc(N3CCS(=O)(=O)CC3)cc2)s1`, the IP in assay [1] turned out to be 0.7 nM; in assay [2] it was 851 nM.

As to `N#CC1(NC(=O)[C@@H]2CCCC[C@H]2c2nc(-c3cccc(C4CCOCC4)c3)sc2-c2ccc(N3CCS(=O)(=O)CC3)cc2)CC1`, the IP in assay [1] is 1.7 nM; in assay [2] it was 3330 nM.

On to `C[C@@H](C#N)NC(=O)[C@@H]1C[C@@H](F)CC[C@H]1c1nc(C2(C(F)(F)F)CC2)sc1-c1ccc(N2CCS(=O)(=O)CC2)cc1`, for which the results for the IP in assay [1] and in assay [2] were 2.8 nM and 3140 nM, respectively.
